From US5276205A, “Insecticides” (ICI Americas Inc., priority 1989, dated 1994)

How the values were obtained:
Format in all cases: in vivo
[1] = system: two-spotted mite [Tetranychus urticae (Koch)], eggs; experiment: Two-spotted mite acaricidal test, eggs (2SM-E); settings: percent in dip solution, mortality after 5-7 days, max. 0.05%
Description: (§1) Acaricidal Evaluation Test
(§2) The two-spotted mite (2SM) [Tetranychus urticae (Koch)] was employed in tests for miticides. The test procedure was as follows:
(§3) Pinto bean plants (Phaseolus sp.), approximately 10 cm tall, were transplanted into sandy loam soil in small cups and thoroughly infested with two-spotted mites of mixed ages and sexes. Twenty-four hours later the infested plants were inverted and dipped for 2-3 seconds in 50-50 acetone-water solutions of the test compound. Treated plants were held in the greenhouse, and 5-7 days later mortality was determined for both adult mites and the nymphs hatching from eggs which were on the plants at the time of treatment. Test concentrations ranged from 0.05% downward. The LC-50 value is expressed below in Table 2 under the headings "2SM-A" (i.e., adults) and "2SM-E" (i.e. eggs) in terms of percent concentration of the test compound in the solution.

[2] = system: Cabbage Looper [Trichoplusia ni (Hubner)]; experiment: Cabbage looper insecticidal test (CL); settings: second-instar larvae; percent in solution; mortality 3-5 days later; max. 0.1%
Method: (§4) The compounds in Table 1 above were tested for insecticidal activity using the following testing procedures. LC50 values, based on the results of these tests and calculated according to dosage-mortality curves, are expressed in Table 2.
Cabbage Looper [Trichoplusia ni (Hubner)]
The test compound was diluted in a 50-50 acetone-water solution. Cotyledons of hyzini squash (Calabacita abobrinha), approximately 1×1.5 inches, were immersed in the test solutions for 2-3 seconds and placed on a wire screen to dry. The dried leaves were placed in petri dishes containing a moistened piece of filter paper and infested with 5 second-instar cabbage looper larvae. The dishes were placed in a high humidity chamber. Mortality of the larvae was recorded 3-5 days later. Test concentrations ranged from 0.1% downward. The LC-50 value is expressed below in Table 2 under the heading "CL" in terms of percent of the test compound in solution.

[3] = system: Housefly [Musca domestica]; experiment: Housefly insecticidal test (HF); settings: μg of test compound per 25 female flies; mortality after 48 hours; max. test level 100 μg
Method: as §4
Housefly [Musca domestica]
The test compound was diluted in acetone and aliquots pipetted onto the bottom of aluminum dishes. To ensure even spreading of the chemical on the bottom of the dishes, 1 ml of acetone containing 0.01% peanut oil was also added to each dish. After all solvents had evaporated, the dishes were placed in circular cardboard cages containing 25 female houseflies, 1-2 days old. The cages were covered on the bottom with cellophane and on the top with tulle netting, and each contained a sugar-water saturated cotton plug for maintenance of the flies. Mortality was recorded after 48 hours. Test levels ranged from 100 μg/25 female houseflies downward. The LC-50 value is expressed below in Table 2 under the heading "HF", in terms of μg of the test compound per 25 female flies.

[4] = system: Tobacco Budworm [Heliothis virescens (Fabricius)], eggs; experiment: Tobacco budworm egg test (TBW-E); settings: 2-day old eggs dipped; percent in acetone solution; max. 0.1%
Method: The compounds in Table 1 above were tested for insecticidal activity using the following testing procedures.
Tobacco Budworm [Heliothis virescens (Fabricius)]
Eggs: Paper towel patches of 2-day old eggs of the tobacco budworm were dipped in acetone solutions of the test compound and placed in petri dishes containing a portion of larval rearing medium. […] Test concentrations ranged from 0.1% downward. The LC-50 value is expressed below in Table 2 under the heading "TBW-E" in terms of percent of the test compound in the solution.

[5] = system: Western Spotted Cucumber Beetle Larvae [Diabrotica undecimpunctata (Mannherheim)]; experiment: Western spotted cucumber beetle larvae soil test (Diab); settings: ppm in soil; max. 25 ppm
Method: as §4
Western Spotted Cucumber Beetle Larvae [Diabrotica undecimpunctata (Mannherheim)]
Ten grams of moist potting soil was placed in a plastic cup. The test compound was dissolved in acetone. A 0.05 ml aliquot of the test sample, diluted to the desired concentration, was added to the soil. The cup was capped and the soil was mixed on a vortex mixer for approximately 15 seconds. An indentation was made on the surface of the soil and approximately 50 Diabrotica eggs were added. The eggs were covered with soil and maintained at room temperature (approximately 70° F. or 21° C.). Four days later a section of Romaine lettuce (Latuca sativa) leaf was placed in the treated cups. One week later the cups were examined for live larvae. Test concentrations ranged from 25 ppm downward. The LC-50 value is expressed below in Table 2 under the heading "Diab" in terms of ppm of the test compound in the soil.

[6] = system: Black Bean Aphid [Aphis fabae (Scop.)]; experiment: Black bean aphid insecticidal test (BBA); settings: percent in sprayed solution; mortality after 48 hours; max. 0.05%
Method: as §4
Black Bean Aphid [Aphis fabae (Scop.)]
Nasturtium plants (Tropaeolum sp.) approximately 5 cm tall, were transplanted into sandy loam soil in small cups and infested with 25-50 black bean aphids of mixed ages. Twenty-four hours later they were sprayed to the point of runoff with 50-50 acetone-water solutions of the test compound. Treated plants were held in the greenhouse and mortality was recorded after 48 hours. Test concentrations ranged from 0.05% downward. The LC-50 value is expressed below in Table 2 under the heading "BBA" in terms of percent of the test compound in the sprayed solution.

[7] = system: two-spotted mite [Tetranychus urticae (Koch)], adults; experiment: Two-spotted mite acaricidal test, adults (2SM-A); settings: percent in dip solution, mortality after 5-7 days, max. 0.05%
Description: as §1, §2, §3

SMILES	LC50 2-SM E [1] [%]	LC50 CL [2] [%]	LC50 HF [3] [µg]	LC50 TBW E [4] [%]	LC50 Diab. [5]	LC50 BBA [6] [%]	LC50 2-SM A [7] [%]
CC(C)C(O)(CCc1cccc(Oc2ccccc2)c1)Cc1ccc(Cl)cc1 (centres unmarked) [Compound 1, 1-(4-chlorophenyl)-2-isopropyl-4-(3-phenoxyphenyl)-2-butanol]	> 0.05	0.015	> 100	> 0.1	> 25 ppm (soil)	0.05	> 0.05
Cc1ccc(CC(O)(CCc2cccc(Oc3ccccc3)c2)C(C)C)cc1 (centres unmarked) [Compound 2]	> 0.05	0.016	> 100	> 0.1	> 25 ppm (soil)	0.05	> 0.05
OC(CCc1cccc(Oc2ccccc2)c1)(Cc1ccc(Cl)cc1)C1CC1 (centres unmarked) [Compound 3]	> 0.05	0.025	> 100	> 0.1	> 25 ppm (soil)	> 0.05	> 0.05
OC(CCc1cccc(Oc2ccccc2)c1)(Cc1cccc(Cl)c1)C1CC1 (centres unmarked) [Compound 4]	> 0.05	0.035	> 100	> 0.1	> 25 ppm (soil)	> 0.05	> 0.05
CC(C)C(O)(CCc1cccc(Oc2ccccc2)c1)Cc1cccc(Cl)c1 (centres unmarked) [Compound 5]	> 0.05	0.008	84	> 0.1	> 25 ppm (soil)	0.05	> 0.05
